Test results taken from patent US10980813B2, “Antifungal composition” (SEED RESEARCH INSTITUTE CO., LTD., priority 2017, dated 2021).
≈ marks a conversion by molar mass, not a printed value.

Assays:
Assay in all cases: Antifungal activity, MIC by disc (diffusion) method
C. parapsilosis = format: cell-based, Candida parapsilosis; conditions: Lodderomyces parapsilosis, YMG agar, 24 hr at 28° C., read-out: MIC (minimum inhibitory concentration) C. parapsilosis
Procedure: (§1) Measurement Method of Antifungal Activity in Various Compounds
(§2) The minimum inhibitory concentration (MIC) was measured by a disc method (diffusion method). The disc method is one kind of the diffusion method, and is a method in which filter paper (disc) impregnated with an antifungal substance at a given concentration is placed on an agar medium (test plate) coated with a test bacterium and cultivated. The disc absorbs water in the medium, diffuses the antifungal substance and forms a given concentration gradient. As a result, the test bacterium forms a growth inhibition zone (circle) in the periphery of the disc, and the level of sensitivity to the antifungal substance is determined from the diameter of the inhibition circle.
(§3) Using the aforementioned method, MIC of various compounds was measured.
(§4) i: In a 100 mL flask, 20 mL of YMG or Mueller Hinton medium is produced.
(§5) ii: A loopful of the test bacterium is dissolved in the medium.
(§6) iii: The medium is cultured at 200 rpm for 24 hr in a rotary shaker set to 28° C.
(§7) i: In a 300 mL flask, 100 mL of YMG or Mueller Hinton agar medium (low melting point agar) is produced.
(§8) ii: After cooling to 37° C.-40° C., preculture medium (1 mL) is added and the mixture is agitated.
(§9) iii: The mixture is dispensed to a square petri dish (size: 100*150*17 mm) by 20 mL each.
(§10) iv: The dish is stood at room temperature until the agar is solidified.
(§11) i: The compound is diluted in ½ dilution series in 10 stages (timely changed according to compound), 50 μL of solution/pulp at each dilution stage is produced, the organic solvent is dried at room temperature and placed on a test plate.
(§12) ii: After culturing T. rubrum for 48 hr and other test bacteria for 24 hr at 28° C. in an incubator, the size of the inhibition circle was measured.
(§13) The medium composition for culture which was used for the aforementioned preculture is shown below.
(§14) [Medium Compositions for Preculture and Test Plate]
(§15) <<YMG Medium>>: For Fungus
(§16) Agar, powder 0.8% * added only when producing test plate

Saccharomyces = format: cell-based; conditions: YMG agar, 24 hr at 28° C., read-out: MIC (minimum inhibitory concentration) Saccharomyces
Procedure: as §1, §2, §3, §4, §5, §6, §7, §8, §9, §10, §11, §12, §13, §14, §15, §16

A. fumigatus = format: cell-based; conditions: Aspergillus fumigatus, YMG agar, 24 hr at 28° C., read-out: MIC (minimum inhibitory concentration) A. fumigatus
Procedure: as §1, §2, §3, §4, §5, §6, §7, §8, §9, §10, §11, §12, §13, §14, §15, §16

T. rubrum = format: cell-based; conditions: Trichophyton rubrum, YMG agar, 48 hr at 28° C., read-out: MIC (minimum inhibitory concentration) T. rubrum
Procedure: as §1, §2, §3, §4, §5, §6, §7, §8, §9, §10, §11, §12, §13, §14, §15, §16

T. mentagrophytes = format: cell-based; conditions: Trichophyton mentagrophytes, YMG agar, 24 hr at 28° C., read-out: MIC (minimum inhibitory concentration) T. mentagrophytes
Procedure: as §1, §2, §3, §4, §5, §6, §7, §8, §9, §10, §11, §12, §13, §14, §15, §16

| SMILES | MIC (C. parapsilosis) [µg/mL] | MIC (Saccharomyces) [µg/mL] | MIC (A. fumigatus) [µg/mL] | MIC (T. rubrum) [µg/mL] | MIC (T. mentagrophytes) [µg/mL] |
| --- | --- | --- | --- | --- | --- |
| O=S1(=O)N=CC2=COc3ccc(F)cc3C2=N1 [I-6b] | 4 (≈ 15.9 µM) | 4 (≈ 15.9 µM) | 4 (≈ 15.9 µM) | 1 (≈ 3.96 µM) | 1 (≈ 3.96 µM) |
| CC1=NS(=O)(=O)N=C1C [I-4b] | 16 (≈ 109 µM) | 16 (≈ 109 µM) | 16 (≈ 109 µM) | 4 (≈ 27.4 µM) | 4 (≈ 27.4 µM) |
| O=S1(=O)N=CC2=COc3ccccc3C2=N1 [I-6a] | 4 (≈ 17.1 µM) | 4 (≈ 17.1 µM) | 4 (≈ 17.1 µM) | 1 (≈ 4.27 µM) | 1 (≈ 4.27 µM) |
| O=[N+]([O-])c1cc(Cl)cc2c1OS(=O)(=O)N=C2 [I-1i] | 4 (≈ 15.2 µM) | 4 (≈ 15.2 µM) | 4 (≈ 15.2 µM) | 1 (≈ 3.81 µM) | 1 (≈ 3.81 µM) |
| O=[N+]([O-])c1ccc2c(c1)C=NS(=O)(=O)O2 [I-1e] | 4 (≈ 17.5 µM) | 4 (≈ 17.5 µM) | 4 (≈ 17.5 µM) | 1 (≈ 4.38 µM) | 1 (≈ 4.38 µM) |
| O=S1(=O)N=Cc2nccn21 [I-5a] | 8 (≈ 50.9 µM) | 8 (≈ 50.9 µM) | 8 (≈ 50.9 µM) | 2 (≈ 12.7 µM) | 2 (≈ 12.7 µM) |
| CCC1=NS(=O)(=O)OC1CC (centres unmarked) [I-3b] | 4 (≈ 22.6 µM) | 4 (≈ 22.6 µM) | 4 (≈ 22.6 µM) | 2 (≈ 11.3 µM) | 2 (≈ 11.3 µM) |
| O=S1(=O)N=CC2=COc3ccc(Cl)cc3C2=N1 [I-6c] | 4 (≈ 14.9 µM) | 4 (≈ 14.9 µM) | 4 (≈ 14.9 µM) | 1 (≈ 3.72 µM) | 1 (≈ 3.72 µM) |
| O=S1(=O)N=Cc2cc(Cl)cc(Cl)c2O1 [I-1h] | 4 (≈ 15.9 µM) | 4 (≈ 15.9 µM) | 4 (≈ 15.9 µM) | 1 (≈ 3.97 µM) | 1 (≈ 3.97 µM) |
| CC1=C(C)C(c2ccccc2)=NS(=O)(=O)N1 [I-2d] | 8 (≈ 33.9 µM) | 8 (≈ 33.9 µM) | 8 (≈ 33.9 µM) | 2 (≈ 8.46 µM) | 2 (≈ 8.46 µM) |
| CC1=NS(=O)(=O)OC(C)=C1C [I-2a] | 8 (≈ 45.7 µM) | 8 (≈ 45.7 µM) | 8 (≈ 45.7 µM) | 2 (≈ 11.4 µM) | 2 (≈ 11.4 µM) |
| CC1=NS(=O)(=O)Nc2ccccc21 [I-1k] | 8 (≈ 40.8 µM) | 8 (≈ 40.8 µM) | 8 (≈ 40.8 µM) | 2 (≈ 10.2 µM) | 2 (≈ 10.2 µM) |
| CC1=CC(C)=NS(=O)(=O)N1 [I-2b] | 16 (≈ 99.9 µM) | 16 (≈ 99.9 µM) | 16 (≈ 99.9 µM) | 2 (≈ 12.5 µM) | 2 (≈ 12.5 µM) |
| CC1=NS(=O)(=O)N=C1 [I-4a] | 8 (≈ 60.5 µM) | 8 (≈ 60.5 µM) | 8 (≈ 60.5 µM) | 2 (≈ 15.1 µM) | 2 (≈ 15.1 µM) |
| O=S1(=O)N=C(c2ccccc2)CO1 [I-3c] | 8 (≈ 40.6 µM) | 8 (≈ 40.6 µM) | 8 (≈ 40.6 µM) | 2 (≈ 10.1 µM) | 2 (≈ 10.1 µM) |
| COc1ccc2c(c1)C=NS(=O)(=O)O2 [I-1d] | 8 (≈ 37.5 µM) | 8 (≈ 37.5 µM) | 8 (≈ 37.5 µM) | 2 (≈ 9.38 µM) | 2 (≈ 9.38 µM) |
| CCCCCCCCN1CC(c2ccccc2)=NS1(=O)=O [I-3e] | 8 (≈ 25.9 µM) | 8 (≈ 25.9 µM) | 8 (≈ 25.9 µM) | 2 (≈ 6.48 µM) | 2 (≈ 6.48 µM) |

Other lines, results leading:

| MIC (C. parapsilosis) [µg/mL] | MIC (Saccharomyces) [µg/mL] | MIC (A. fumigatus) [µg/mL] | MIC (T. rubrum) [µg/mL] | MIC (T. mentagrophytes) [µg/mL] | SMILES |
| --- | --- | --- | --- | --- | --- |
| 4 (≈ 18.4 µM) | 4 (≈ 18.4 µM) | 4 (≈ 18.4 µM) | 1 (≈ 4.6 µM) | 1 (≈ 4.6 µM) | O=S1(=O)Oc2ccc(F)cc2C2ON21 (centres unmarked) [II-1a] |
| 8 (≈ 37.5 µM) | 8 (≈ 37.5 µM) | 8 (≈ 37.5 µM) | 2 (≈ 9.38 µM) | 2 (≈ 9.38 µM) | O=S1(=O)OCC2(c3ccccc3)ON21 (centres unmarked) [II-3c] |
| 4 (≈ 14.4 µM) | 4 (≈ 14.4 µM) | 4 (≈ 14.4 µM) | 1 (≈ 3.59 µM) | 1 (≈ 3.59 µM) | O=[N+]([O-])c1cc(Cl)cc2c1OS(=O)(=O)N1OC21 (centres unmarked) [II-1i] |
| 16 (≈ 98.7 µM) | 16 (≈ 98.7 µM) | 16 (≈ 98.7 µM) | 4 (≈ 24.7 µM) | 4 (≈ 24.7 µM) | CC1=NS(=O)(=O)N2OC12C (centres unmarked) [II-4b] |
| 8 (≈ 32.3 µM) | 8 (≈ 32.3 µM) | 8 (≈ 32.3 µM) | 2 (≈ 8.08 µM) | 2 (≈ 8.08 µM) | O=S1(=O)OCC2(c3ccc(Cl)cc3)ON21 (centres unmarked) [II-3d] |
| 8 (≈ 34.9 µM) | 8 (≈ 34.9 µM) | 8 (≈ 34.9 µM) | 2 (≈ 8.73 µM) | 2 (≈ 8.73 µM) | COc1ccc2c(c1)C1ON1S(=O)(=O)O2 (centres unmarked) [II-1d] |
| 8 (≈ 24.7 µM) | 8 (≈ 24.7 µM) | 8 (≈ 24.7 µM) | 2 (≈ 6.16 µM) | 2 (≈ 6.16 µM) | CCCCCCCCN1CC2(c3ccccc3)ON2S1(=O)=O (centres unmarked) [II-3e] |
| 4 (≈ 16 µM) | 4 (≈ 16 µM) | 4 (≈ 16 µM) | 1 (≈ 4 µM) | 1 (≈ 4 µM) | O=S1(=O)N=C2C(=COc3ccccc32)C2ON21 (centres unmarked) [II-6a] |
| 8 (≈ 41.8 µM) | 8 (≈ 41.8 µM) | 8 (≈ 41.8 µM) | 2 (≈ 10.5 µM) | 2 (≈ 10.5 µM) | CC1=C(C)C2(C)ON2S(=O)(=O)O1 (centres unmarked) [II-2a] |
| 4 (≈ 17.1 µM) | 4 (≈ 17.1 µM) | 4 (≈ 17.1 µM) | 1 (≈ 4.28 µM) | 1 (≈ 4.28 µM) | O=S1(=O)Oc2ccc(Cl)cc2C2ON21 (centres unmarked) [II-1b] |
| 8 (≈ 54 µM) | 8 (≈ 54 µM) | 8 (≈ 54 µM) | 2 (≈ 13.5 µM) | 2 (≈ 13.5 µM) | CC1=NS(=O)(=O)N2OC12 (centres unmarked) [II-4a] |
| 16 (≈ 92.9 µM) | 16 (≈ 92.9 µM) | 16 (≈ 92.9 µM) | 4 (≈ 23.2 µM) | 4 (≈ 23.2 µM) | O=S1(=O)N2OC2c2cccn21 (centres unmarked) [II-5b] |
| 4 (≈ 15.6 µM) | 4 (≈ 15.6 µM) | 4 (≈ 15.6 µM) | 1 (≈ 3.89 µM) | 1 (≈ 3.89 µM) | COC(=O)c1ccc2c(c1)C1ON1S(=O)(=O)O2 (centres unmarked) [II-1f] |
| 8 (≈ 29.3 µM) | 8 (≈ 29.3 µM) | 8 (≈ 29.3 µM) | 2 (≈ 7.33 µM) | 2 (≈ 7.33 µM) | O=S1(=O)N=C(CCc2ccc(Cl)cc2)C2ON21 (centres unmarked) [II-4d] |
| 4 (≈ 14.1 µM) | 4 (≈ 14.1 µM) | 4 (≈ 14.1 µM) | 1 (≈ 3.51 µM) | 1 (≈ 3.51 µM) | O=S1(=O)N=C2C(=COc3ccc(Cl)cc32)C2ON21 (centres unmarked) [II-6c] |
| 4 (≈ 24.2 µM) | 4 (≈ 24.2 µM) | 4 (≈ 24.2 µM) | 2 (≈ 12.1 µM) | 2 (≈ 12.1 µM) | CC1OS(=O)(=O)N2OC12C (centres unmarked) [II-3a] |
| 8 (≈ 33.6 µM) | 8 (≈ 33.6 µM) | 8 (≈ 33.6 µM) | 2 (≈ 8.39 µM) | 2 (≈ 8.39 µM) | CC1=CC2(c3ccccc3)ON2S(=O)(=O)N1 (centres unmarked) [II-2c] |
